Assay results: PubChem BioAssay (NCI)
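Exposure lasted 48 hours, with cells grown in 96-well plates and compounds tested at five concentrations. At the TGI there is no net growth.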

What was measured:
Experiment in all cases: growth of human tumour cells (NCI), 48 h
[1] = system: ACHN renal
[2] = system: K-562 leukemia
[3] = system: HCT-116 colon
[4] = system: MDA-MB-435
[5] = system: PC-3 prostate
[6] = system: T-47D breast
[7] = system: UACC-257 melanoma
[8] = system: A549 NSCLC
[9] = system: MDA-MB-231 breast
[10] = system: SF-295 CNS
[11] = system: HCT-15 colon
[12] = system: COLO 205 colon
[13] = system: SK-MEL-5 melanoma
[14] = system: DU-145 prostate
[15] = system: SK-MEL-28 melanoma
[16] = system: SW-620 colon
[17] = system: MCF7 breast
[18] = system: MALME-3M melanoma
[19] = system: RPMI-8226 leukemia
[20] = system: EKVX NSCLC

SMILES	TGI [1] [µM]	TGI [2] [µM]	TGI [3] [µM]	TGI [4] [µM]	TGI [5] [µM]	TGI [6] [µM]	TGI [7] [µM]	TGI [8] [µM]	TGI [9] [µM]	TGI [10] [µM]	TGI [11] [µM]	TGI [12] [µM]	TGI [13] [µM]	TGI [14] [µM]	TGI [15] [µM]	TGI [16] [µM]	TGI [17] [µM]	TGI [18] [µM]	TGI [19] [µM]	TGI [20] [µM]
CC(CN1NC12CCCC2)N1NC12CCCC2 (stereo not given)	> 100	> 100	> 100	> 100	> 100	> 100	> 100	> 100	> 100	> 100	> 100	> 100	> 100	> 100	> 100	> 100	> 100	> 100	> 100	> 100
CCCc1nnc2sc(COc3ccc(OCc4nn5c(CCC)nnc5s4)c(Cl)c3)nn12	59.1	> 100	> 100	59	> 100	39.6	51.1	> 100	> 100	> 100	> 100	> 100	21.2	> 100	> 100	> 100	55.3	> 100	> 100	48.1
COC(=O)NC(=O)NC(Cc1ccccc1)NC(=O)OCc1ccccc1 (stereo not given)	> 100	> 100	> 100	> 100	> 100	> 100	> 100	> 100	78.1	> 100	> 100	> 100	> 100	> 100	> 100	> 100	> 100	> 100	> 100	> 100
CC(C)=CCC[C@@H](C)[C@H]1CC[C@@]2(C)[C@@H]3CC[C@H]4C(C)(C)[C@@H](O)CC[C@@]45C[C@@]35CC[C@]12C	> 73.1	> 100	> 77.9	> 68.8	> 100	> 100	> 100	48.1	> 64.6	> 78.7	> 100	> 100	> 64.4	> 100	> 100	> 100	> 100	> 100	> 88.7	> 88.8
C=CCN1C(=O)CC2[C@@H]3CCc4cc(O)ccc4C3CC[C@]2(C)C1=O (stereo not given in full)	> 10	> 10	> 10	> 10	> 10	> 10	> 10	> 10	> 10	> 10	> 10	> 10	> 10	> 10	> 10	> 10	> 10	> 10	> 10	> 10
CC(C)(C)C(=O)/C=C(\OB(F)F)C(C)(C)C	> 100	> 100	> 100	> 100	> 100	> 100	> 100	> 100	> 100	> 100	> 100	> 100	> 100	> 100	> 100	> 100	> 100	> 100	> 100	> 100
CCCCNC(=O)OCCN=c1c2ccccc2ccc2ccccc12	> 100	> 100	> 100	> 100	> 100	> 100	> 100	> 100	> 100	> 100	> 100	> 100	> 100	> 100	> 100	> 100	> 100	> 100	> 100	> 100
COc1cc(CN=c2nc(N(C)C)ss2)cc(OC)c1OC	> 10	5.67	> 10	> 10	> 10	> 10	> 10	> 10	> 10	> 10	> 10	> 10	> 10	> 10	> 10	> 10	> 10	> 9.27	> 7.37	> 10
CN(Cc1cnc2nc(N)nc(N)c2n1)c1ccc(C(=O)NCCCS(=O)(=O)O)cc1	> 100	> 100	> 100	> 100	> 100	> 100	> 100	> 100	> 100	> 100	> 100	> 100	> 100	> 100	> 100	> 100	> 100	> 100	> 100	> 100
O=C1Cc2c(-c3cccs3)cc(-c3ccccc3)nc2-c2ccccc2N1	> 100	> 100	> 100	> 100	> 100	> 100	> 100	> 100	> 100	> 100	> 100	> 100	> 100	> 100	> 100	> 100	> 100	45.7	> 100	> 100
CC(C#N)(c1ccccc1)N(CCc1ccccc1)C(=O)Oc1ccccc1 (stereo not given)	> 100	> 100	> 100	> 100	> 100	> 100	> 100	> 100	> 100	> 100	> 100	> 100	> 100	> 100	> 100	> 100	> 100	> 100	> 100	> 100
Clc1ccc(OCC2NC3CCC2CC3)cn1 (stereo not given)	> 100	41.4	35.9	43.4	78.3	> 100	36	> 100	47.8	68.8	45.5	32.4	31.8	> 100	> 100	57.1	34.8	39.6	32.5	60.6
CCOC(=O)c1nc2ccccc2nc1Oc1cc(OC)cc(OC)c1	> 100	> 100	> 100	> 100	> 100	> 100	> 100	> 100	> 100	> 100	> 100	> 100	> 100	> 100	> 100	> 100	> 100	> 100	> 100	> 100
CCC(C)N1CN(c2ccccc2)C2(CCN(CC3COc4ccccc4O3)CC2)C1=O (stereo not given)	> 100	46.9	32	49.7	87.3	51.3	65.9	> 100	> 100	39.1	61.1	47.7	28.9	59.8	> 100	58.8	49.6	34.6	47.2	64.1
CN1CCN(c2cc3[nH]c4cc(O)cc(O)c4c(=O)c3cc2N)CC1	> 100	36.1	> 100	42.4	52.7	> 100	> 100	> 100	3.32	> 100	> 100	32	50.1	> 100	83.4	65.3	45.8	67.4	49.2	87.9
Cc1ccc2c(c1C)C(=O)C1(C2)Cc2ccc3c(c2C1=O)CCC3 (stereo not given)	> 100	> 100	> 100	> 100	> 100	> 100	> 100	> 100	> 100	> 100	> 100	> 100	> 100	> 100	> 100	> 100	> 100	> 100	> 100	> 100
CC1=C(O)C(=O)C=C2C1=CC=C1[C@@]2(C)CC[C@@]2(C)C3C[C@@H](C)C(=O)[C@@H](O)[C@]3(C)CC[C@]12C (stereo not given in full)	3.07	5.17	3.21	6.6	4.23	3.44	7.46	28.5	3.75	13.4	3.73	3.05	12.7	3.38	4.17	2.32	11	3.97	5.08	4.12
O=C1C2C3C4C1C1C2[C@H](OCc2ccccc2)C3C1[C@H]4OCc1ccccc1 (stereo not given in full)	> 100	> 100	> 100	> 100	> 100	> 100	> 100	> 100	> 100	> 100	57.9	82.5	> 100	> 100	> 100	> 100	> 100	> 100	> 100	89.1
